# Assay results published in PubChem BioAssay (NCI).
#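 Cultured in 96-well plates, cells were exposed to test compound for 48 hours across five concentrations. GI50: concentration for 50% inhibition of growth. TGI denotes the concentration required for complete inhibition of growth.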
# Experiments:
# Assay in all cases: NCI anticancer screen, dose series, 48 h
# BT-549 breast = tested on: BT-549 breast
# HCC-2998 colon = tested on: HCC-2998 colon
# LOX IMVI melanoma = tested on: LOX IMVI melanoma
# CAKI-1 renal = tested on: CAKI-1 renal
# OVCAR-5 ovarian = tested on: OVCAR-5 ovarian
# UACC-257 melanoma = tested on: UACC-257 melanoma
# SK-MEL-28 melanoma = tested on: SK-MEL-28 melanoma
# M14 melanoma = tested on: M14 melanoma
# HT29 colon = tested on: HT29 colon
# MDA-MB-435 = tested on: MDA-MB-435
# COLO 205 colon = tested on: COLO 205 colon
# HCT-15 colon = tested on: HCT-15 colon
# SK-MEL-2 melanoma = tested on: SK-MEL-2 melanoma
# RPMI-8226 leukemia = tested on: RPMI-8226 leukemia
# NCI-H460 lung = tested on: NCI-H460 lung
# ACHN renal = tested on: ACHN renal
# PC-3 prostate = tested on: PC-3 prostate
# SK-MEL-5 melanoma = tested on: SK-MEL-5 melanoma
# HOP-62 NSCLC = tested on: HOP-62 NSCLC
# NCI-H226 lung = tested on: NCI-H226 lung
# NCI/ADR-RES ovarian = tested on: NCI/ADR-RES ovarian
# SK-OV-3 ovarian = tested on: SK-OV-3 ovarian
# NCI-H522 lung = tested on: NCI-H522 lung
# HCT-116 colon = tested on: HCT-116 colon
# TK-10 renal = tested on: TK-10 renal
# MCF7 breast = tested on: MCF7 breast
# CCRF-CEM leukemia = tested on: CCRF-CEM leukemia
# UACC-62 melanoma = tested on: UACC-62 melanoma
# NCI-H23 lung = tested on: NCI-H23 lung
# HS 578T breast = tested on: HS 578T breast
# OVCAR-8 ovarian = tested on: OVCAR-8 ovarian
# RXF 393 renal = tested on: RXF 393 renal
# SF-295 CNS = tested on: SF-295 CNS
# IGROV1 ovarian = tested on: IGROV1 ovarian
# T-47D breast = tested on: T-47D breast
# OVCAR-3 ovarian = tested on: OVCAR-3 ovarian
# HL-60(TB) leukemia = tested on: HL-60(TB) leukemia
# HOP-92 NSCLC = tested on: HOP-92 NSCLC
# SNB-19 CNS = tested on: SNB-19 CNS
# EKVX NSCLC = tested on: EKVX NSCLC
# SN12C renal = tested on: SN12C renal
# SF-539 CNS = tested on: SF-539 CNS
# 786-0 renal = tested on: 786-0 renal
# SW-620 colon = tested on: SW-620 colon
# KM12 colon = tested on: KM12 colon
# U251 CNS = tested on: U251 CNS
# MDA-MB-231 breast = tested on: MDA-MB-231 breast
# DU-145 prostate = tested on: DU-145 prostate
# A549 NSCLC = tested on: A549 NSCLC
# A498 renal = tested on: A498 renal
# UO-31 renal = tested on: UO-31 renal
# SNB-75 CNS = tested on: SNB-75 CNS
# SF-268 CNS = tested on: SF-268 CNS
# SR leukemia = tested on: SR leukemia
# K-562 leukemia = tested on: K-562 leukemia
compound,measurement,setting,value
CC1=C(C(=O)Nc2ccc(F)c(Cl)c2)C(c2cccc(Oc3ccccc3)c2)NC(=O)N1 (configuration not stated),GI50,BT-549 breast,15.3 µM
same,TGI,BT-549 breast,31.1 µM
same,GI50,HCC-2998 colon,14.6 µM
same,TGI,HCC-2998 colon,27.8 µM
same,GI50,LOX IMVI melanoma,15.4 µM
same,TGI,LOX IMVI melanoma,28.7 µM
same,GI50,CAKI-1 renal,18.6 µM
same,TGI,CAKI-1 renal,38.8 µM
same,GI50,OVCAR-5 ovarian,14.9 µM
same,TGI,OVCAR-5 ovarian,28.2 µM
same,GI50,UACC-257 melanoma,18 µM
same,TGI,UACC-257 melanoma,34.9 µM
same,GI50,SK-MEL-28 melanoma,14.7 µM
same,TGI,SK-MEL-28 melanoma,28.1 µM
same,GI50,M14 melanoma,15.2 µM
same,TGI,M14 melanoma,29.3 µM
same,GI50,HT29 colon,12 µM
same,TGI,HT29 colon,24.5 µM
same,GI50,MDA-MB-435,18.8 µM
same,TGI,MDA-MB-435,39.8 µM
same,GI50,COLO 205 colon,14.2 µM
same,TGI,COLO 205 colon,29.6 µM
same,GI50,HCT-15 colon,15.4 µM
same,TGI,HCT-15 colon,28.9 µM
same,GI50,SK-MEL-2 melanoma,17.2 µM
same,TGI,SK-MEL-2 melanoma,32.4 µM
same,GI50,RPMI-8226 leukemia,8.51 µM
same,TGI,RPMI-8226 leukemia,26.3 µM
same,GI50,NCI-H460 lung,15.7 µM
same,TGI,NCI-H460 lung,38.4 µM
same,GI50,ACHN renal,15.1 µM
same,TGI,ACHN renal,28.4 µM
same,GI50,PC-3 prostate,10.5 µM
same,TGI,PC-3 prostate,22.3 µM
same,GI50,SK-MEL-5 melanoma,13.2 µM
same,TGI,SK-MEL-5 melanoma,26.5 µM
same,GI50,HOP-62 NSCLC,15.4 µM
same,TGI,HOP-62 NSCLC,29.2 µM
same,GI50,NCI-H226 lung,16.2 µM
same,TGI,NCI-H226 lung,37.4 µM
same,GI50,NCI/ADR-RES ovarian,19 µM
same,TGI,NCI/ADR-RES ovarian,37.2 µM
same,GI50,SK-OV-3 ovarian,18 µM
same,TGI,SK-OV-3 ovarian,32.7 µM
same,GI50,NCI-H522 lung,14.9 µM
same,TGI,NCI-H522 lung,29.4 µM
same,GI50,HCT-116 colon,12.2 µM
same,TGI,HCT-116 colon,24.6 µM
same,GI50,TK-10 renal,8.67 µM
same,TGI,TK-10 renal,21.7 µM
same,GI50,MCF7 breast,17.6 µM
same,TGI,MCF7 breast,43.7 µM
same,GI50,CCRF-CEM leukemia,10.4 µM
same,TGI,CCRF-CEM leukemia,26.4 µM
same,GI50,UACC-62 melanoma,12.4 µM
same,TGI,UACC-62 melanoma,24.8 µM
same,GI50,NCI-H23 lung,15.4 µM
same,TGI,NCI-H23 lung,28.8 µM
same,GI50,HS 578T breast,12.2 µM
same,TGI,HS 578T breast,32.9 µM
same,GI50,OVCAR-8 ovarian,18 µM
same,TGI,OVCAR-8 ovarian,43.7 µM
same,GI50,RXF 393 renal,14.4 µM
same,TGI,RXF 393 renal,32.1 µM
same,GI50,SF-295 CNS,22.1 µM
same,TGI,SF-295 CNS,57 µM
same,GI50,IGROV1 ovarian,10.7 µM
same,TGI,IGROV1 ovarian,24.2 µM
same,GI50,T-47D breast,15.7 µM
same,TGI,T-47D breast,34.6 µM
same,GI50,OVCAR-3 ovarian,20.7 µM
same,TGI,OVCAR-3 ovarian,57.3 µM
same,GI50,HL-60(TB) leukemia,8.07 µM
same,TGI,HL-60(TB) leukemia,24.7 µM
same,GI50,HOP-92 NSCLC,12 µM
same,TGI,HOP-92 NSCLC,24.9 µM
same,GI50,SNB-19 CNS,16 µM
same,TGI,SNB-19 CNS,31.3 µM
same,GI50,EKVX NSCLC,14.8 µM
same,TGI,EKVX NSCLC,31.8 µM
same,GI50,SN12C renal,16.1 µM
same,TGI,SN12C renal,32.8 µM
same,GI50,SF-539 CNS,14.6 µM
same,TGI,SF-539 CNS,28.3 µM
same,GI50,786-0 renal,15.4 µM
same,TGI,786-0 renal,29.8 µM
same,GI50,SW-620 colon,18.2 µM
same,TGI,SW-620 colon,38.2 µM
same,GI50,KM12 colon,14.9 µM
same,TGI,KM12 colon,34.3 µM
same,GI50,U251 CNS,13.4 µM
same,TGI,U251 CNS,26.2 µM
same,GI50,MDA-MB-231 breast,16 µM
same,TGI,MDA-MB-231 breast,30.3 µM
same,GI50,DU-145 prostate,13.4 µM
same,TGI,DU-145 prostate,26.4 µM
same,GI50,A549 NSCLC,14.1 µM
same,TGI,A549 NSCLC,30.2 µM
same,GI50,A498 renal,10.5 µM
same,TGI,A498 renal,23.4 µM
same,GI50,UO-31 renal,12.2 µM
same,TGI,UO-31 renal,26 µM
same,GI50,SNB-75 CNS,7.53 µM
same,TGI,SNB-75 CNS,20.4 µM
same,GI50,SF-268 CNS,15.6 µM
same,TGI,SF-268 CNS,40.3 µM
C=C(CNCCc1ccc(O)cc1)[C@@H]1CC[C@]2(COC3CCCCO3)CC[C@]3(C)[C@H](CC[C@@H]4[C@@]5(C)CCC(N)C(C)(C)[C@@H]5CC[C@]43C)[C@@H]12 (some centres not stated),GI50,SR leukemia,289 nM
same,TGI,SR leukemia,> 100 µM
same,GI50,U251 CNS,0.306 µM
same,TGI,U251 CNS,> 100 µM
same,GI50,K-562 leukemia,305 nM
same,TGI,K-562 leukemia,> 100 µM
